The values that follow come from patent publication US8927559B2, “Quinazolinone-type compounds as CRTH2 antagonists” (Merck Sharp & Dohme Corp., priority 2010, dated 2015).

pKi: −log10 of the molar value. Values joined by “and” are separate entries in the source; they are usually repeats but may differ in a detail not shown here. Equal entries are not always repeated. A value given as a limit tells only on which side of the number the result lay.

The first test concerns the target T1, CRTH2 receptor (hCRTH2) (Homo sapiens, UniProt Q9Y5Y4).
T1 construct: expressed in transfected cells; host or cells: HEK cells (HEK-hCRTH2 cell line), membranes
T1 sequence (Q9Y5Y4 1-395): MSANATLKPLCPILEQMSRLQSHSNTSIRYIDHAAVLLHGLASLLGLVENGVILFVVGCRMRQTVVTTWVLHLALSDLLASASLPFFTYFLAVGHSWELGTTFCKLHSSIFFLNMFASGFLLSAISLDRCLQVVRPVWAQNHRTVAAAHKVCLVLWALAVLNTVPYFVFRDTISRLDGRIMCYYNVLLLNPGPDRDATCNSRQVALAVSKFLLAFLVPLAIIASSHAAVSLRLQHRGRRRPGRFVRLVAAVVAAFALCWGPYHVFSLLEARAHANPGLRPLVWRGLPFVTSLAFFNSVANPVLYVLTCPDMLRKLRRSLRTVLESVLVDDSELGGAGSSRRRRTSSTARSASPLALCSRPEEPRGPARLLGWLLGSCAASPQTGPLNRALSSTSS
Briefly: Radioligand binding assay ([3H]PGD2 competition, membranes of HEK-hCRTH2 cell line). To be noted: 3.0 nM [3H]PGD2, HEK-hCRTH2 membranes, 60 min, room temperature; read-out: Ki. The procedure:
Competing ligands were diluted in dimethylsulfoxide (Me2SO) that was kept constant at 1% (v/v) of the final incubation volume. The reaction was initiated by the addition of 8-20 μg of membrane protein prepared from a HEK-hCRTH2 cell line. Total and non-specific binding were determined in the absence and the presence of […] PGD2, respectively. […] The reaction was routinely conducted for 60 min at room temperature and terminated by rapid filtration through prewetted (0.3% polyethyleneimine) 96-well printed filtermate (Wallac) using a Tomtec harvester. After washing with cold buffer, the filter was dried for 2 minutes in microwave, and Meltilex Scintillator sheet (Wallac) was melted on for 2 min.
What is called pKi is the negative decadic logarithm of the Ki, by convention in mol/L. On to `O=C(O)CCCCc1nc2cc(C3=NOC(c4nc5ccccc5o4)C3)ccc2c(=O)n1-c1ccc(F)cc1` (single isomer, unassigned) [Example 28D, 5-(7-(5-(benzo[d]oxazol-2-yl)-4,5-dihydroisoxazol-3-yl)-3-(4-fluorophenyl)-4-oxo-3,4-dihydroquinazolin-2-yl)pentanoic acid], for which the pKi is 7.30 to 8.00.
The same measure, in the same setting: under `O=C(O)CCCCc1nc2cc(C3=NOC(c4nc5ccccc5o4)C3)ccc2c(=O)n1-c1ccc(F)cc1` (single isomer, unassigned) [Example 28E, 5-(7-(5-(benzo[d]oxazol-2-yl)-4,5-dihydroisoxazol-3-yl)-3-(4-fluorophenyl)-4-oxo-3,4-dihydroquinazolin-2-yl)pentanoic acid] stands not below 8.00; under `CC(c1ccccc1)C1(C)CC(c2ccc3c(=O)n(-c4ccc(F)cc4)c(CCCCC(=O)O)nc3c2)=NO1` (single isomer, unassigned) [Example 42, 5-(3-(4-fluorophenyl)-7-(5-methyl-5-(1-phenylethyl)-4,5-dihydroisoxazol-3-yl)-4-oxo-3,4-dihydroquinazolin-2-yl)pentanoic acid], not below 8.00.
For the compound `CC(c1ccccc1)C1(C)CC(c2ccc3c(=O)n(-c4ccc(F)cc4)c(CCCCC(=O)O)nc3c2)=NO1` (single isomer, unassigned) [Example 42E, 5-(3-(4-fluorophenyl)-7-(5-methyl-5-(1-phenylethyl)-4,5-dihydroisoxazol-3-yl)-4-oxo-3,4-dihydroquinazolin-2-yl)pentanoic acid], the pKi is not below 8.00.
In the case of `CC(c1ccccc1)C1(C)CC(c2ccc3c(=O)n(-c4ccc(F)cc4)c(CCCCC(=O)O)nc3c2)=NO1` (single isomer, unassigned) [Example 42F, 5-(3-(4-fluorophenyl)-7-(5-methyl-5-(1-phenylethyl)-4,5-dihydroisoxazol-3-yl)-4-oxo-3,4-dihydroquinazolin-2-yl)pentanoic acid], the negative logarithm of the Ki (pKi) was not below 8.00.
On the same count and under the same terms, under `CC(c1ccccc1)C1(C)CC(c2ccc3c(=O)n(-c4ccc(F)cc4)c(CCCCC(=O)O)nc3c2)=NO1` (single isomer, unassigned) [Example 42G, 5-(3-(4-fluorophenyl)-7-(5-methyl-5-(1-phenylethyl)-4,5-dihydroisoxazol-3-yl)-4-oxo-3,4-dihydroquinazolin-2-yl)pentanoic acid] stands 7.30 to 8.00; under `O=C(O)CCCCc1nc2cc(C3=NOC4(CC[C@H](c5ccccc5)C4)C3)ccc2c(=O)n1-c1ccc(F)cc1` (single isomer, unassigned) [Example 139], not below 8.00.
Same read-out and setting: under `O=C(O)CCCCc1nc2cc(C3=NOC4(CC[C@@H](c5ccccc5)C4)C3)ccc2c(=O)n1-c1ccc(F)cc1` (single isomer, unassigned) [Example 141] stands not below 8.00; under `O=C(O)CSc1nc2cc(-c3cscn3)ccc2c(=O)n1-c1ccc(F)cc1` [Example 1K], 7.30 to 8.00.
On the same count and under the same terms, the result for `O=C(O)CCCCc1nc2cc(-c3cc(C4CC4)on3)ccc2c(=O)n1-c1ccc(F)cc1` [Example 5J] reads 7.30 to 8.00; that for `O=C(O)CCCCc1nc2cc(-c3ccon3)ccc2c(=O)n1-c1ccc(F)cc1` [Example 5K], 7.30 to 8.00.
For the compound `O=C(O)CCCCc1nc2cc(-c3cc(C(F)(F)F)on3)ccc2c(=O)n1-c1ccc(F)cc1` [Example 5M], the pKi was not below 8.00.
The same measure, in the same setting: the result for `O=C(O)CCCCc1nc2cc(-c3cc(-c4ccc(F)cc4)on3)ccc2c(=O)n1-c1ccc(F)cc1` [Example 5N] reads not below 8.00; that for `O=C(O)CCCCc1nc2cc(-c3cc(C(=O)C4CC4)on3)ccc2c(=O)n1-c1ccc(F)cc1` [Example 5Q], 7.30 to 8.00; that for `Cc1cc(-c2ccc3c(=O)n(-c4ccc(F)cc4)c(CCCCC(=O)O)nc3c2)no1` [Example 5i], 7.30 to 8.00.
The same measure, in the same setting: under `O=C(O)CCCCc1nc2cc(-c3cc(C4CC4)no3)ccc2c(=O)n1-c1ccc(F)cc1` [Example 8C, 5-(7-(3-Cyclopropylisoxazol-5-yl)-3-(4-fluorophenyl)-4-oxo-3,4-dihydroquinazolin-2-yl)pentanoic acid] stands 7.30 to 8.00; under `Cc1cc(-c2ccc3c(=O)n(-c4ccc(F)cc4)c(CCCCC(=O)O)nc3c2)on1` [Example 8D], not below 8.00.
The same measure, in the same setting: under `Cn1cc(-c2ccc3c(=O)n(-c4ccc(F)cc4)c(CCCCC(=O)O)nc3c2)nn1` [Example 9, 5-(3-(4-Fluorophenyl)-7-(1-methyl-1H-1,2,3-triazol-4-yl)-4-oxo-3,4-dihydroquinazolin-2-yl)pentanoic acid] stands not below 8.00; under `Cc1cc(-c2ccc3c(=O)n(-c4ccc(C(F)(F)F)cc4)c(CCCCC(=O)O)nc3c2)no1` [Example 13, 5-{7-(5-Methylisoxazol-3-yl)-4-oxo-3-[4-(trifluoromethyl)phenyl]-3,4-dihydroquinazolin-2-yl}pentanoic acid], not below 8.00.
As to `O=C(O)CCCCc1nc2cc(-c3noc(-c4ccncc4)n3)ccc2c(=O)n1-c1ccc(F)cc1` [Example 14, 5-{3-(4-fluorophenyl)-4-oxo-7-[5-(pyridin-4-0)-1,2,4-oxadiazol-3-yl]-3,4-dihydroquinazolin-2-yl}pentanoic acid], the pKi was 7.30 to 8.00 and 7.76.
In the case of `CC(C)(C)c1ccc(-c2nc(-c3ccc4c(=O)n(-c5ccc(F)cc5)c(CCCCC(=O)O)nc4c3)no2)cc1` [Example 14C], the pKi is 7.30 to 8.00.
Turning to `O=C(O)CCCCc1nc2cc(C3=NOC(c4ccccc4)C3)ccc2c(=O)n1-c1ccc(F)cc1` (stereo not drawn) [Example 15, 5-(3-(4-fluorophenyl)-4-oxo-7-(5-phenyl-4,5-dihydroisoxazol-3-yl)-3,4-dihydroquinazolin-2-yl)pentanoic acid], the pKi is 7.30 to 8.00.
Still for that read-out and setting: the result for `O=C(O)CCCCc1nc2cc(C3=NOC(c4ccccn4)C3)ccc2c(=O)n1-c1ccc(F)cc1` (stereo not drawn) [Example 15G] reads 7.30 to 8.00.
Still for that read-out and setting: the result for `O=C(O)CCCCc1nc2cc(C3=NOC(c4ccncc4)C3)ccc2c(=O)n1-c1ccc(F)cc1` (stereo not drawn) [Example 15H] reads 7.30 to 8.00.
Take `O=C(O)CCCCc1nc2cc(C3=NOC(c4ccccc4)C3)ccc2c(=O)n1-c1ccc(Cl)cc1` (stereo not drawn) [Example 15K]: the pKi was not below 8.00.
As to `O=C(O)CCCCc1nc2cc(C3=NOC(c4ccccn4)C3)ccc2c(=O)n1-c1ccc(Cl)cc1` (stereo not drawn) [Example 15L], the pKi is not below 8.00.

Still in this test, the particulars now being: Ki, 3.0 nM [3H]PGD2, HEK-hCRTH2 membranes, 60 min, room temperature.
For the compound `CC1(c2nc3ccccc3o2)CC(c2ccc3c(=O)n(-c4ccc(F)cc4)c(CCCCC(=O)O)nc3c2)=NO1` (single isomer, unassigned) [Example 35, 5-(7-(5-(benzo[d]oxazol-2-yl)-5-methyl-4,5-dihydroisoxazol-3-yl)-3-(4-fluorophenyl)-4-oxo-3,4-dihydroquinazolin-2-yl)pentanoic acid], the pKi is not below 8.00.
Same read-out and setting: the result for `CC1(c2nc3ccccc3o2)CC(c2ccc3c(=O)n(-c4ccc(F)cc4)c(CCCCC(=O)O)nc3c2)=NO1` (single isomer, unassigned) [Example 35G, 5-(7-(5-(benzo[d]oxazol-2-yl)-5-methyl-4,5-dihydroisoxazol-3-yl)-3-(4-fluorophenyl)-4-oxo-3,4-dihydroquinazolin-2-yl)pentanoic acid] reads 7.30 to 8.00.
Turning to `CC1(c2ccccc2)CC(c2ccc3c(=O)n(-c4ccc(F)cc4)c(CCCCC(=O)O)nc3c2)=NO1` (stereo not drawn) [Example 15E], the pKi is 7.30 to 8.00.
Still for that read-out and setting: the result for `CC1(c2ccccc2)CC(c2ccc3c(=O)n(-c4ccc(F)cc4)c(CCCCC(=O)O)nc3c2)=NO1` (stereo not drawn) [Example 15F] reads not below 8.00.
